Source: publication PMC5531494, “Target specificity, in vivo pharmacokinetics, and efficacy of the putative STAT3 inhibitor LY5 in osteosarcoma, Ewing's sarcoma, and rhabdomyosarcoma” (PLoS ONE, 2017)
Marks after values point to notes of the source that are not given here.

What was measured:
[1] = tested on: Rh10; test: Subcutaneous xenograft study; format: in vivo, mice; conditions: Rh10, 10 mg/kg daily for five days for four consecutive weeks
Protocol: (§1) C.B-17SC scid^-/- female mice (Taconic Farms, Germantown NY), were used to propagate subcutaneously implanted tumors. All mice were maintained under barrier conditions and experiments were conducted using protocols and conditions approved by the institutional animal care and use committee at University of Texas Health Science Center at San Antonio. Ten mice were used in each control or treatment group. Tumor volumes (cm^3) were determined and responses were determined using three activity measures as previously described.
(§2) The data were analyzed by using GraphPad Prism software (GraphPad Software, Inc., San Diego, CA). Data are presented as mean ± standard deviation. Data were analyzed by one-way analysis of variance (ANOVA), and Tukey’s post-test was used to assess differences between groups. Differences were considered statistically significant at p < 0.05. For in vivo xenograft models, an event was defined as four times the tumor volume at baseline similar to the PPTP criteria. The probabilities of time-to-event among groups were compared using log-rank test. The anti-tumor efficacy of LY5 was analyzed by using the statistical pipeline developed in PPTP [27].

[2] = tested on: Rh36; test: Subcutaneous xenograft study; format: in vivo, mice; conditions: Rh36, 10 mg/kg daily for 28 days
Protocol: as §1, §2

[3] = tested on: OS-17; test: Subcutaneous xenograft study; format: in vivo, mice; conditions: OS-17, 10 mg/kg daily for 28 days
Protocol: as §1, §2

[4] = molecular target: STAT3 (Homo sapiens, UniProt P40763); test: IL-6 / OSM induced STAT3 phosphorylation in SJSA cells, Western blot; format: cell-based; design: endogenous in cells; conditions: LY5 two hours then 50 ng/mL cytokine 30 minutes
Chain of STAT3 (P40763 whole entry): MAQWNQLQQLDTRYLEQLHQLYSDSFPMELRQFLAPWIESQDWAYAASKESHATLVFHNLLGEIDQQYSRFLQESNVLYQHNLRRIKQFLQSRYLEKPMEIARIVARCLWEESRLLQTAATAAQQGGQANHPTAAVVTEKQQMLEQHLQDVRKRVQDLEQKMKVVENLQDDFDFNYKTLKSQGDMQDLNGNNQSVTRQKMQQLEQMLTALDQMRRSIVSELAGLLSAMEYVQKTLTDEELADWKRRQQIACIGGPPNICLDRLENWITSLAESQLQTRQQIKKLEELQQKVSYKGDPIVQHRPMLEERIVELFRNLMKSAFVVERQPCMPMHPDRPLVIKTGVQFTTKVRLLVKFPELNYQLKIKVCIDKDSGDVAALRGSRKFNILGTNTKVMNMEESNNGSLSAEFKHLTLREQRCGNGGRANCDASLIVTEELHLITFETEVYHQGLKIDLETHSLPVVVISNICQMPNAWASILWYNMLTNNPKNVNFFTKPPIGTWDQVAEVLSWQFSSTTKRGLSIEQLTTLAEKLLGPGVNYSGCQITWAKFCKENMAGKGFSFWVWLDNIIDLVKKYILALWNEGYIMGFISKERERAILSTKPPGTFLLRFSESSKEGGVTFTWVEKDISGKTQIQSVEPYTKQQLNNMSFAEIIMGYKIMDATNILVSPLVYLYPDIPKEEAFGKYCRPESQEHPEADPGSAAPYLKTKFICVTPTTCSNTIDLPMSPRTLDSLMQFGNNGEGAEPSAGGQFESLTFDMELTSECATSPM
Protocol: Cell lysis, protein isolation and immunoblotting were performed as described previously. Twenty micrograms of protein were resolved using 4–12% Bis-Tris polyacrylamide gels. Gels were transferred to PVDF membranes and subjected to blocking and incubation with primary and secondary antibodies. The primary antibodies used in this study included: phospho-STAT3 (Tyr705, Cell Signaling, Boston, MA and Abcam, Cambridge, MA), total STAT3 (Cell Signaling and Abcam), phospho-STAT1 (Cell Signaling), total STAT1 (Cell Signaling), phospho-STAT2 (Cell Signaling), phospho-STAT4 (Cell Signaling), phospho-STAT6 (Cell Signaling), and GAPDH (Cell Signaling). Protein bands were detected using Western Lightning ® Plus Enhanced Chemiluminescence substrate (Perkin Elmer, Waltham, MA) and HyBlot CL ® Autoradiography film (Denville Scientific, Holliston, MA). The cytokines used in this study included: interferon gamma (IFN-γ, Cell Signaling), interferon alpha (IFN-α, Cell Signaling), interleukin-4 (IL-4, Cell Signaling), interleukin-6 (IL-6, Cell Signaling), and oncostatin M (OSM, Cell Signaling).
Fig 1 LY5 inhibits pSTAT3 in sarcoma cell lines. (A) The tumor cell lines RH30, EW8, and RD were treated with increasing concentrations of LY5 for 30 minutes. Cell lysates were collected for Western blotting of p-STAT3, total STAT3, and GAPDH. GAPDH was used as loading control. […]

[5] = tested on: ES-8 cells; test: Alamar Blue cell viability assay; format: cell-based; conditions: Homo sapiens, ES8; ES-8, 96 hours
Protocol: (§3) Sarcoma cell lines were seeded in 24-well plates in 1X RPMI medium containing 10% fetal bovine serum. Cells were then incubated with DMSO (control) or concentrations of LY5 ranging from 10 nM to 10 μM for 96 hrs. At the end of the incubation period, Alamar Blue (Invitrogen, Carlsbad, CA) was added to cells at one-tenth the volume of the cell culture medium and incubated for 3 hrs at 37° C in the dark. Fluorescence was then measured at an excitation/emissions wavelength of 570/590 nm and emission wavelength of 590 nm.
(§4) Fig 2 Biologic activity of LY5 in sarcoma cell lines. Dose response curves for LY5: RMS cell lines (RH30, RD, JR-1), ES cell lines (ES-3, ES-6, ES-7, ES-8), and an OS cell line (OS-17) were treated with LY5 (concentrations ranging from 10 nM to 10 μM) for 96 hours. Cell viability was determined using Alamar Blue staining. IC50 values are indicated for each cell line. Analyses were performed in triplicate and data are plotted as means ± standard deviation.

[6] = tested on: ES-6 cells; test: Alamar Blue cell viability assay; format: cell-based; conditions: Homo sapiens; ES-6, 96 hours
Protocol: as §3, §4

[7] = tested on: RH30 cells; test: Alamar Blue cell viability assay; format: cell-based; conditions: Homo sapiens; RH30, 96 hours
Protocol: as §3, §4

[8] = tested on: OS-17 cells; test: Alamar Blue cell viability assay; format: cell-based; conditions: Homo sapiens; OS-17, 96 hours
Protocol: as §3, §4

[9] = tested on: ES-7 cells; test: Alamar Blue cell viability assay; format: cell-based; conditions: Homo sapiens, ES7; ES-7, 96 hours
Protocol: as §3, §4

[10] = tested on: RD cells; test: Alamar Blue cell viability assay; format: cell-based; conditions: Homo sapiens, 96 hours
Protocol: as §3, §4

[11] = tested on: ES-3 cells; test: Alamar Blue cell viability assay; format: cell-based; conditions: Homo sapiens; ES-3, 96 hours
Protocol: as §3, §4

[12] = tested on: JR-1 cells; test: Alamar Blue cell viability assay; format: cell-based; conditions: Homo sapiens; JR-1, 96 hours
Protocol: as §3, §4

## NS(=O)(=O)c1cccc2c1C(=O)C=C(Nc1cccnc1)C2=O [LY5, 5,8-dioxo-6-(pyridin-3-ylamino)-5,8-dihydronaphthalene-1-sulfonamide]
[1]
  Event-free survival (Treatment/Control): 1.11
  Group Response: PD1^e (Progressive disease 1, <50% tumor growth inhibition (TGI))
  Median day to event: 18.7 days
  Survival (%): 100%
[2]
  Event-free survival (Treatment/Control): 0.94
  Group Response: PD1 (Progressive disease 1, <50% tumor growth inhibition (TGI))
  Median day to event: 16.5 days
  Survival (%): 100%
[3]
  Event-free survival (Treatment/Control): 1.15
  Group Response: PD1 (Progressive disease 1, <50% tumor growth inhibition (TGI))
  Median day to event: 19.7 days
  Survival (%): 90%
[4]
  IL-6 and OSM induced STAT3 phosphorylation: effectively blocked
[5]
  IC50: 2000 nM
[6]
  IC50: 5.06 µM
[7]
  IC50: 428 nM
[8]
  IC50: 1430 nM
[9]
  IC50: 2150 nM
[10]
  IC50: 204 nM
[11]
  IC50: 3.42 µM
[12]
  IC50: 271 nM
